Assay results reported in ChEMBL document CHEMBL1201862, “PubChem BioAssay data set” (2004).
“And” between values parts separate entries of the source, which are not always exact repeats. Equal entries are not always repeated. The source made the active and inactive calls.

What was measured:
[1] = HIV-1 AD8 envelope cell-cell fusion blockers – cherry-pick, dose response (AID 652062); type: functional, cell-based;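 note: luciferase signal from cell-cell fusion driven by HIV-1 clade B AD8 Env; potency is for inhibitors of fusion seen as a drop in luminescence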
[2] = viability loss in CEM21 cells – cell-based, plate reader, dry powder, cytotoxicity control, dose response (AID 687026); type: functional
[3] = blockers of HIV-1 envelope-mediated cell-cell fusion – cherry-pick, dose response (AID 652057); type: functional, cell-based
[4] = biological target: Beta-2 adrenergic receptor (Homo sapiens, UniProt P07550); experiment: ADRB2 activation measured by internalization – cell-based, FAP fluorogen, flow cytometry, cherry pick 1, dose response (AID 588763); type: functional
[5] = off-target signal loss in HeLa-CEM21 co-culture – HeLa F-luc CTL cells, cherry-picked, counter-screen for HIV-1 Env fusion inhibitor project, dose response (AID 652040); type: functional, cell-based;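 note: potency for signal decrease marking cytotoxic or nonspecific inhibition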
[6] = blockers of HIV-1 ZM109 envelope-driven cell-cell fusion – HeLa effector, CEM target cells, luciferase, cherry-pick, dose response (AID 652058); type: functional, cell-based;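 note: luciferase signal from HIV-1 Env mediated cell-cell fusion of effector and target cells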
[7] = biological target: Major prion protein (Homo sapiens, UniProt P04156); type: functional, cell-based
[8] = cells
[9] = biological target: Melanocortin receptor 4 (Homo sapiens, UniProt P32245); type: functional, cell-based;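 note: Cell-based assay with luminescence read-out, confirmatory dose-response testing for agonist activity of biased ligands at MC4R; human U2OS cells with tagged receptor and beta-arrestin; potency of agonists that increase receptor coupling to beta-arrestin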
[10] = general mammalian cell viability loss – inhibitor set, cherry-pick, set 2, cytotoxicity control for miR-122 modulator project, dose response (AID 720697); type: functional, cell-based
[11] = biological target: T1, Insulin-degrading enzyme (Homo sapiens, UniProt P14735); experiment: cellular IDE activation of Abeta substrate cleavage – fluorescence polarization, HEK cells, dose response (AID 588439); type: functional, cell-based
T1 sequence (P14735 whole entry): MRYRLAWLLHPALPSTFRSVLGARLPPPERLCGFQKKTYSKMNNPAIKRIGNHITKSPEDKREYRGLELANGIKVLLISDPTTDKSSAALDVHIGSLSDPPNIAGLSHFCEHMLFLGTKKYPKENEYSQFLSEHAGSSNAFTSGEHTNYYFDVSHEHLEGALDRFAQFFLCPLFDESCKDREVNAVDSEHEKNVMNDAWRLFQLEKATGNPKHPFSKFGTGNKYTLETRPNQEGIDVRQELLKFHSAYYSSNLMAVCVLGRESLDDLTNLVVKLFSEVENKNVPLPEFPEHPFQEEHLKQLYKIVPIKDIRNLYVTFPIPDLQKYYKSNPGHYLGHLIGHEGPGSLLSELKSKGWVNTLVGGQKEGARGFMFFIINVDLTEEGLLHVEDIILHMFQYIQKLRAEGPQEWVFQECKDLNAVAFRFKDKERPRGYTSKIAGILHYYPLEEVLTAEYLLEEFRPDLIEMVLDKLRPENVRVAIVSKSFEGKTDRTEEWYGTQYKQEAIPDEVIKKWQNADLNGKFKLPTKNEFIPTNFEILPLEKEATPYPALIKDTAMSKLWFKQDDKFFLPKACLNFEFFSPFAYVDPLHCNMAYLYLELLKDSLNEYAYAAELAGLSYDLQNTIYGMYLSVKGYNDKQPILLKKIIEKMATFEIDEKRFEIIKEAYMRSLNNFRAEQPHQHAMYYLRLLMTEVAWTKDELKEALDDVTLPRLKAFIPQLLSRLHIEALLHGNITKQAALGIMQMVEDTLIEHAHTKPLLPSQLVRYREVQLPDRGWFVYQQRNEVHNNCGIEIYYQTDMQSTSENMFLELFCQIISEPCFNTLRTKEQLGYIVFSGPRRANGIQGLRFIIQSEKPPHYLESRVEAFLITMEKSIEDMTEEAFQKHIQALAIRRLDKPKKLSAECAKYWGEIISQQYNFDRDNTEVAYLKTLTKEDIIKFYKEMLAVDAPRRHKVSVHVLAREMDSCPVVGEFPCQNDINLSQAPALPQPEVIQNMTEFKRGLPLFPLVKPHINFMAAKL

[12] = biological target: T1, Insulin-degrading enzyme; experiment: recombinant IDE activation, cell-free – biochemical, fluorescence polarization, counter-screen for IDE activator project, dose response (AID 588681)
[13] = general mammalian cell viability loss – activator set, cherry-pick, cytotoxicity control for miR-122 modulator project, dose response (AID 720690); type: functional, cell-based;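 note: HEK293T human cells scored for general mammalian cytotoxicity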
[14] = activation of miR-122 Renilla sensor silencing – cell-based, Huh7 psiCHECK-miR122, Renilla luciferase, cherry-picked, dose response (AID 651956); type: functional;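 note: huh7 hepatoma cells stably carrying a psiCHECK-2 miR-122 sensor plasmid; renilla luciferase signal reporting endogenous miR-122 activity after 48 h compound exposure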
[15] = viability of uninfected HEp-2 cells – cell-based, HTS, cytotoxicity control for RSV inhibitor project, dose response (AID 2410); type: functional; details: human respiratory syncytial virus
[16] = tested on: HEK293; experiment: membrane integrity loss in HEK cells – cell-based, fluorescence, cytotoxicity control for IDE activator project, dose response (AID 588440); type: functional; details: Homo sapiens;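 note: cytotoxicity by LDH release measuring loss of membrane integrity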
[17] = tested on: A-375; experiment: proliferation inhibition in MITF-low A375 cells – cell-based, cherry-pick samples, set 2, counter-screen for MITF modulator project, dose response (AID 540335); type: functional; details: Homo sapiens
[18] = biological target: T2, Microphthalmia-associated transcription factor (Homo sapiens, UniProt O75030); experiment: reducers of TRPM1 reporter luminescence, concentration series – cell-based, SK-MEL-5, cherry-picked, set 3, MITF inhibitor project, dose response (AID 493073); type: functional;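 note: SK-MEL-5 melanoma cells with luciferase driven by the MITF target TRPM1 promoter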
T2 sequence (O75030 whole entry): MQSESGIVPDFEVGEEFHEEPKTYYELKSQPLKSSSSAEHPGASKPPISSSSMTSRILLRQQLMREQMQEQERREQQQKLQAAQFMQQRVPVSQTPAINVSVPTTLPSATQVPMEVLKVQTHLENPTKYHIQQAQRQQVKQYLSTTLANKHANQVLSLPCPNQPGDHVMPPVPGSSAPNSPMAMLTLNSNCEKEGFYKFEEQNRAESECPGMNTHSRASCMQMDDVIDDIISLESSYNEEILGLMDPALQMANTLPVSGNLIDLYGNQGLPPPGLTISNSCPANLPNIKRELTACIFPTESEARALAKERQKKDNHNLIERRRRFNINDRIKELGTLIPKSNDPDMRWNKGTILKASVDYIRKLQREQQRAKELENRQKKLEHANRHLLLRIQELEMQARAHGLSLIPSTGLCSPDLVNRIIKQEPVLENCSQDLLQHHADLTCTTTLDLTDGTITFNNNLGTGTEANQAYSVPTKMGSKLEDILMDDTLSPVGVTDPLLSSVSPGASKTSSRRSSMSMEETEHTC

[19] = biological target: T3, DNA repair protein RAD52 homolog (Homo sapiens, UniProt P43351); type: functional, biochemical
T3 sequence (P43351 whole entry): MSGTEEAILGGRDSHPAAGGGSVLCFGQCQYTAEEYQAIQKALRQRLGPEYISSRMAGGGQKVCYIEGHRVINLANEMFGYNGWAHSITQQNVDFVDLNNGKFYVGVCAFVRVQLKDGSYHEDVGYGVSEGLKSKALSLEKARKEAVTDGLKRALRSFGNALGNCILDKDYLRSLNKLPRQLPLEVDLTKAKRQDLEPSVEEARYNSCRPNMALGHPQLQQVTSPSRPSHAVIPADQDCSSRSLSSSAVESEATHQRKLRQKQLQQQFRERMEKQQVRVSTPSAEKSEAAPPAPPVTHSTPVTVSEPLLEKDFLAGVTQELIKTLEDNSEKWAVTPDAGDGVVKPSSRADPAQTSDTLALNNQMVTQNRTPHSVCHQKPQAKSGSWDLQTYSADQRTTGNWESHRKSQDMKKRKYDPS

[20] = tested on: HEK293; experiment: optical interference in Abeta FP readout, dose response, artefact control for IDE activator project, biochemical, fluorescence polarization (AID 588442); type: functional, cell-based; details: Homo sapiens
[21] = biological target: Metabotropic glutamate receptor 5 (Rattus norvegicus, UniProt P31424); experiment: Identification of a glycine sulfonamide based non-MPEP site positive allosteric potentiator (PAM) of mGlu5 (calcium_assay).; type: functional
[22] = HEK293 Cytotoxicity Assay Measured in Cell-Based System Using Plate Reader - 7071-01_Inhibitor_Dose_CherryPick_Activity_Set2.; type: functional
[23] = tested on: HEK293; experiment: viability loss in HEK293T cells – cell-based, ATP luminescence, cherry-pick samples, cytotoxicity control, dose response (AID 687005); type: functional; details: Homo sapiens;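 note: cells exposed to compound for 48 hours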
[24] = toxicity toward immortalized ovarian surface epithelium – cell-based, plate reader, dry powder samples, cytotoxicity control for PAX8 inhibitor project, dose response (AID 743045); type: functional
[25] = IGROV1 cell killing – plate reader, dry powder samples, PAX8 inhibitor project, dose response (AID 743043); type: functional, cell-based; details: IGROV-1
[26] = A2780 cell killing – plate reader, dry powder samples, cytotoxicity control, dose response (AID 743046); type: functional, cell-based
[27] = OVCAR8 cell viability loss – plate reader, dry powder samples, PAX8 project, dose response (AID 743197); type: functional, cell-based; details: OVCAR-8
[28] = OVCAR-3 cell viability loss – plate reader, dry powder samples, PAX8 inhibitor project, dose response (AID 743044); type: functional, cell-based
[29] = biological target: Paired box protein Pax-8 (Homo sapiens, UniProt Q06710); experiment: PAX8 transcriptional activity inhibition in RMG-I – RMG-I cells, luciferase, cherry-pick, dose response (AID 687027); type: functional, cell-based;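 note: luciferase reporter driven by Pax8 target thyroperoxidase promoter measured by SteadyGlo luminescence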
[30] = cells; details: HEK293
[31] = cells; details: A549
[32] = viability loss in HepG2 liver cells – cell-based, ATP luminescence, cherry-pick, set 6, cytotoxicity control, dose response (AID 1053125); type: functional
[33] = A Cell-Based Confirmatory Screen for Compounds that Inhibit VEEV, TC-83 (5).; type: functional
[34] = A Cell-Based Confirmatory Screen for Compounds that Inhibit VEEV, TC-83 (8).; type: functional
[35] = A Cell-Based Confirmatory Screen for Compounds that Inhibit VEEV TC-83 (4).; type: functional
[36] = biological target: Metabotropic glutamate receptor 3 (Rattus norvegicus, UniProt P31422); experiment: inhibition of rat mGlu3 glutamate signaling – HEK/GIRK cells, thallium flux, dose response (AID 651839); type: functional
[37] = biological target: T4, Oxysterols receptor LXR-beta (Homo sapiens, UniProt P55055); type: functional, cell-based;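 note: agonist activity at LXR measured by a cell-based luminescence readout across a dose range, run as a counterscreen for daf-12 agonists; HEK293 cells with Gal4-LXR fusion and GAL4-driven luciferase reporter; potency for activation of Gal4-LXR reporter so compounds are agonists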
T4 sequence (P55055 whole entry): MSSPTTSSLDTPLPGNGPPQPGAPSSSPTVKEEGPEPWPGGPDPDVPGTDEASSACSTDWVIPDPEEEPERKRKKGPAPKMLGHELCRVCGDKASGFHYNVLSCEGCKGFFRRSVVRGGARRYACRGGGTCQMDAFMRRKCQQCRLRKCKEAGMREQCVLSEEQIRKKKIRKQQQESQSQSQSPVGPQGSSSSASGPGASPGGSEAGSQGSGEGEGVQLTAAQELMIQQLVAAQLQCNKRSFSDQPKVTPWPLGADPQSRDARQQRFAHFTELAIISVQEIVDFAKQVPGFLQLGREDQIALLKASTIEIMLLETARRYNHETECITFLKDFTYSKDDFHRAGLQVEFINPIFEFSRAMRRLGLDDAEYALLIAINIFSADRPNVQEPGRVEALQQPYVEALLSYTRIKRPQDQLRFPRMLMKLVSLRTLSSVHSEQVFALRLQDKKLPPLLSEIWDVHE

## O=C(CCc1ccc(S(=O)(=O)N2CCOCC2)cc1)Nc1nc(COc2ccccc2)cs1
[1]
  AC50: 4.58 µM (active)
[2]
  AC50: > 70 µM (inactive) and 50.5 µM (active)
[3]
  AC50: 1.65 µM (active)
[4]
  EC50: 1.4 µM (active)
[5]
  AC50: > 70 µM (inactive)
[6]
  AC50: 1.07 µM (active)

## CCOC(=O)CSc1nc(Cc2ccccc2)nc2ccccc12
[7]
  IC50: 4.31 µM (active)
[8]
  IC50: > 138 µM (inactive)

## COc1cccc2sc(N(CCCN(C)C)C(=O)C(c3ccccc3)c3ccccc3)nc12
[9]
  EC50: > 89.2 µM (inactive)
[10]
  AC50: 1.77 µM (active)
[11]
  EC50: 15.1 µM (inactive)
[12]
  EC50: > 54.7 µM (inactive)
[13]
  AC50: 16.2 µM (active)
[14]
  AC50: 8.07 µM (active)
[15]
  CC50: 13.6 µM (active)
[16]
  IC50: 10.2 µM (inactive)
[17]
  AC50: 18.3 µM (active)
[18]
  AC50: 15.1 µM (active)
[19]
  AC50: 13.3 µM (active)
[20]
  EC50: > 54.7 µM (inactive)

## O=S(=O)(c1ccc(C#Cc2cccc(F)c2)cc1)N1CCOCC1
[21]
  EC50: 0.427 µM

## Cc1noc(C)c1NC(=O)N(C)C[C@@H]1Oc2ccc(NC(=O)NC(C)C)cc2CC(=O)N([C@H](C)CO)C[C@H]1C
[22]
  AC50: 1.61 µM (active)
[23]
  AC50: 1.61 µM (active)

## Cc1ccc(S(=O)(=O)N(C)C[C@@H]2Oc3ccc(NC(=O)Nc4ccc(C(F)(F)F)cc4)cc3CC(=O)N([C@H](C)CO)C[C@@H]2C)cc1
[24]
  AC50: 9.76 µM (active)
[25]
  AC50: 10.1 µM (active)
[26]
  AC50: 20.7 µM (active)
[27]
  AC50: 14.3 µM (active)
[28]
  AC50: 3.11 µM (active)
[29]
  AC50: 3.06 µM (active)

## O=c1oc2cc(O)ccc2cc1-c1nc2ccccc2o1
[30]
  AC50: 26.6 µM (active)
[31]
  AC50: > 52 µM (inactive)
[32]
  AC50: > 52 µM (inactive)

## O=c1c2cc([N+](=O)[O-])ccc2nc(CN2CCNCC2)n1-c1ccccc1F
[33]
  IC50: < 0.23 µM (active)
[34]
  IC50: < 0.198 µM (active)
[35]
  IC50: 0.073 µM (active)

## COc1ccc(OC)c(-c2ccc3cc(C(=O)N4CCCC(CO)C4)ccc3c2)c1 (configuration not stated)
[36]
  IC50: 9.16 µM (active)

## Nc1ncc(Br)cc1/N=C/c1ccccc1
[37]
  EC50: > 67.5 µM (inactive)
